For 27 molecules, IC50 results are on record in patent US20080234266A1, “Squaric Acid Derivatives II” (priority 2005, published 2008).

Where only a bound is given, the exact number is not on record here.

This experiment deals with T1, CHK1 kinase (Homo sapiens, UniProt O14757).
T1 construct: glutathione S-transferase (GST); made in house; host or cells: Sf21 insect cells (S. frugiperda), baculovirus
T1 sequence (O14757 1-476): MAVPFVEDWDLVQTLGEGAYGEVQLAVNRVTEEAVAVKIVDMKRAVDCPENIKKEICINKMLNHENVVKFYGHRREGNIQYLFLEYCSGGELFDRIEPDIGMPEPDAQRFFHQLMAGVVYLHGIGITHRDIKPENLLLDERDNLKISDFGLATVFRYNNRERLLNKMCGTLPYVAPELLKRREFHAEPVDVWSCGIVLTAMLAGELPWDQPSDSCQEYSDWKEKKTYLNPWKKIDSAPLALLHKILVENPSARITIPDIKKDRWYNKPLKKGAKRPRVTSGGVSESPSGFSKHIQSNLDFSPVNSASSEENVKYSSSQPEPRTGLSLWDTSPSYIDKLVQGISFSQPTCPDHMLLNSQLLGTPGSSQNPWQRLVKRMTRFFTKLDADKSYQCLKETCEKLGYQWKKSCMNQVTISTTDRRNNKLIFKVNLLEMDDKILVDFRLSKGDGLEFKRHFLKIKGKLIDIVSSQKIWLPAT
In words: Flashplate method (CHK1), measurement of the CHK1 kinase activity. Type of experiment: biochemical. The conditions noted are these: class symbols; 'Affinity to receptors'. How it is done: CHK1 kinase is expressed for the purposes of protein production in insect cells (Sf21; S. frugiperda) and subsequent purification by affinity chromatography as fusion protein with glutathione S-transferase in a baculovirus expression vector. The cultivation, infection and digestion of the cells as well as the purification of the fusion protein by column chromatography are carried out in accordance with manufacturer-oriented generic working instructions.
The kinase activity is measured using various available measurement systems. In the scintillation proximity method (Sorg et al., J. of. Biomolecular Screening, 2002, 7, 11-19), the flashplate method or the filter binding test, the radioactive phosphorylation of a protein or peptide as substrate is measured using radioactively labelled ATP (γ^32P-ATP, (γ^33P-ATP). In the case of the presence of an inhibitory compound, a reduced radioactive signal, or none at all, can be detected. Furthermore, homogeneous time-resolved fluorescence resonance energy transfer (HTR-FRET) and fluorescence polarisation (FP) technologies are useful as assay methods (Sills et al., J. of Biomolecular Screening, 2002, 191-214).
The test plates used are 384-well streptavidin-coated Flashplates Plus® from Perkin Elmer (Cat.No. SMP410A001PK). The assay plate is equilibrated with 75 μl of assay buffer per well 30 min before commencement of the experiment. The buffer is sucked out before commencement of the experiment, and the components of the kinase reaction described below are pipetted onto the plate.
CHK1 kinase, a biotinylated substrate peptide (for example CHKtide: […]), is incubated with radioactively labelled ATP in the presence and absence of test substances at 30° Celsius and a total volume of 50 μl. The reaction is terminated using 25 μl of a 0.2 M EDTA solution. After incubation for 30 min at room temperature, the supernatants are filtered off with suction, and the wells are washed three times with 100 μl of 0.9% NaCl solution each time. The measurement of the bound radioactivity is carried out by means of a scintillation measuring instrument (Topcount NXT, Perkin-Elmer).
The full value used is the inhibitor-free kinase reaction. This should be approximately in the range 3000-4000 cpm. The pharmacological zero value used is staurosporin in a final concentration of 0.1 μM. The inhibitory values (IC50) are determined using the program RS1_MTS ( ).
Kinase reaction conditions per well:
0.15 μg of CHKtide ([…])
50 μl total volume (1-fold assay buffer reaction conditions)
Solutions used: • assay buffer:
0.1 mM Titriplex VI (EGTA
10 mM magnesium acetate 0.1% mercaptoethanol
pH=7.5 (to be set using hydrochloric acid) Bovine serum albumin (final concentration 0.1%) is not added until just before use. • stop solution:
0.2 M TitriplexIII (EDTA)
• γ^33P-ATP (Perkin-Elmer) • CHK1 kinase preparations: specific activity>50 U/mg • CHKtide solution: biotinylated peptide substrate (Biotrend) stored as stock solution (concentration 0.15 mg/ml).

The molecule `NS(=O)(=O)c1ccccc1CNc1c(Nc2ccc3[nH]cnc3c2)c(=O)c1=O` [Compound A155, 3-(1H-benzimidazol-5-ylamino)-4-(2-amino-sulfonylbenzylamino)cyclobut-3-ene-1,2-dione] gave a 50% inhibitory concentration (IC50) of over 1000 nM.
Next, `Cc1ccc(CC(O)c2cccc(CNc3c(Nc4ccc5[nH]cnc5c4)c(=O)c3=O)c2)cc1` (stereo not drawn) [Compound A161, 3-(1H-benzimidazol-5-ylamino)-4-[3-(1-hydroxy-2-p-tolylethyl)benzylamino]cyclobut-3-ene-1,2-dione]: over 1000 nM.
Under “3-[(R)-1-(3-methoxyphenyl)ethylamino]-4-(5-methylimidazo[1,2-a]pyridin-6-ylamino)-cyclobut-3-ene-1,2-dione [Compound A58]” stands over 1000 nM; under `COc1ccccc1CNc1c(Nc2ccc3[nH]cnc3c2)c(=O)c1=O` [Compound A144, 3-(1H-benzimidazol-5-ylamino)-4-(2-methoxybenzylamino)cyclobut-3-ene-1,2-dione], over 1000 nM; under `O=c1c(NCc2cccc(-n3cccc3)c2)c(Nc2ccc3[nH]cnc3c2)c1=O` [Compound A35, 3-(1H-benzimidazol-5-ylamino)-4-(3-pyrrol-1-ylbenzylamino)cyclobut-3-ene-1,2-dione], over 1000 nM.
On to `O=c1c(NCc2ccc3[nH]cnc3c2)c(Nc2ccc3[nH]cnc3c2)c1=O` [Compound A88, 3-(1H-benzimidazol-5-ylamino)-4-[(1H-benzimidazol-5-ylmethyl)amino]cyclobut-3-ene-1,2-dione], for which the IC50 is over 1000 nM.
Next, `O=c1[nH]c2ccc(Nc3c(NCc4cccc(O)c4)c(=O)c3=O)cc2[nH]1` [Compound A30, 4-(2-oxo-2,3-dihydro-1H-benzimidazol-5-yl-amino)-3-(3-hydroxybenzylamino)cyclobut-3-ene-1,2-dione]: over 1000 nM.
Under `Cc1cc2nccn2cc1Nc1c(NCc2cccc(O)c2)c(=O)c1=O` [Compound A54, 3-(3-hydroxybenzylamino)-4-(7-methyl-imidazo[1,2-a]pyridin-6-ylamino)cyclobut-3-ene-1,2-dione] stands over 1000 nM.
`O=c1c(NCc2cccc3[nH]ccc23)c(Nc2ccc3[nH]cnc3c2)c1=O` [Compound A135, 3-(1H-benzimidazol-5-ylamino)-4-[(1H-indol-4-ylmethyl)amino]cyclobut-3-ene-1,2-dione] had a concentration for half-maximal inhibition (IC50) of over 1000 nM.
Molecule `CNS(=O)(=O)c1ccc(CN(C)c2c(Nc3ccc4[nH]cnc4c3)c(=O)c2=O)cc1` [Compound A153, 3-(1H-benzimidazol-5-ylamino)-4-[4-(N-methylaminosulfonyl)benzyl-N-methylamino]-cyclobut-3-ene-1,2-dione] returned an IC50 of over 1000 nM.
The molecule “3-[3-(2-methoxyethyl)-3H-benzimidazol-5-ylamino]-4-[(R)-1-(3-methoxyphenyl)ethyl-amino]cyclobut-3-ene-1,2-dione [Compound A67]” showed an IC50 of over 1000 nM.
The molecule `CN(C)CCOc1cccc(CNc2c(Nc3ccc4[nH]cnc4c3)c(=O)c2=O)c1` [Compound A108, 3-(1H-benzimidazol-5-ylamino)-4-[3-(2-di-methylaminoethoxy)benzylamino]cyclobut-3-ene-1,2-dione] returned a half-inhibitory concentration (IC50) of over 1000 nM.
For the molecule `COCCOc1cccc(CNc2c(Nc3ccc4[nH]cnc4c3)c(=O)c2=O)c1` [Compound A106, 3-(1H-benzimidazol-5-ylamino)-4-[3-(2-methoxyethoxy)benzylamino]cyclobut-3-ene-1,2-dione], the half-inhibitory concentration (IC50) is over 1000 nM.
Under `COCCn1cnc2ccc(Nc3c(NCc4cccc(-c5nnn[nH]5)c4)c(=O)c3=O)cc21` [Compound A69, 3-[3-(2-methoxyethyl)-3H-benzimidazol-5-ylamino]-4-[3-(1H-tetrazol-5-yl)benzylamino]-cyclobut-3-ene-1,2-dione] stands over 1000 nM; under `COc1cccc([C@H](C)Nc2c(Nc3ccc4[nH]cnc4c3)c(=O)c2=O)c1` [Compound A83, 3-(1H-benzimidazol-5-ylamino)-4-[(S)-1-(3-methoxyphenyl)ethylamino]cyclobut-3-ene-1,2-dione], over 1000 nM.
Turning to `O=c1c(NCc2cc(O)ccc2F)c(Nc2ccc3[nH]cnc3c2)c1=O` [Compound A136, 3-(1H-benzimidazol-5-ylamino)-4-(2-fluoro-5-hydroxybenzylamino)cyclobut-3-ene-1,2-dione], the IC50 is over 1000 nM.
Next, `Cc1ccc(CNc2c(Nc3ccc4[nH]cnc4c3)c(=O)c2=O)cc1O` [Compound A92, 3-(1H-benzimidazol-5-ylamino)-4-(3-hydroxy-4-methylbenzylamino)cyclobut-3-ene-1,2-dione]: over 1000 nM; `COc1ccc(CNc2c(Nc3ccc4[nH]cnc4c3)c(=O)c2=O)cc1O` [Compound A91, 3-(1H-benzimidazol-5-ylamino)-4-(3-hydroxy-4-methoxybenzylamino)cyclobut-3-ene-1,2-dione]: over 1000 nM; `CC(=O)c1cccc(CNc2c(Nc3ccc4[nH]cnc4c3)c(=O)c2=O)c1` [Compound A127, 3-(1H-benzimidazol-5-ylamino)-4-(3-acetyl-benzylamino)cyclobut-3-ene-1,2-dione]: over 1000 nM.
Under `CC(=O)NCCOc1cccc(CNc2c(Nc3ccc4[nH]cnc4c3)c(=O)c2=O)c1` [Compound A109, 3-(1H-benzimidazol-5-ylamino)-4-[3-(2-acetamidoethoxy)benzylamino]cyclobut-3-ene-1,2-dione] stands over 1000 nM.
Next, `CS(=O)(=O)c1cccc(CNc2c(Nc3ccc4[nH]cnc4c3)c(=O)c2=O)c1` [Compound A131, 3-(1H-benzimidazol-5-ylamino)-4-(3-methyl-sulfonylbenzylamino)cyclobut-3-ene-1,2-dione]: over 1000 nM; `CCN(CC)CCn1cnc2ccc(Nc3c(NCc4cccc(S(N)(=O)=O)c4)c(=O)c3=O)cc21` [Compound A71, 3-[3-(2-diethylaminoethyl)-3H-benzimidazol-5-ylamino]-4-(3-aminosulfonylbenzylamino)-cyclobut-3-ene-1,2-dione]: over 1000 nM.
With `O=c1c(NCc2cc(Br)ccc2O)c(Nc2ccc3[nH]cnc3c2)c1=O` [Compound A36, 3-(1H-benzimidazol-5-ylamino)-4-(3-bromo-6-hydroxybenzylamino)cyclobut-3-ene-1,2-dione], the IC50 is over 1000 nM.
In the case of `COc1ccc(F)c(CNc2c(Nc3ccc4[nH]cnc4c3)c(=O)c2=O)c1` [Compound A85, 3-(1H-benzimidazol-5-ylamino)-4-(2-fluoro-5-methoxybenzylamino)cyclobut-3-ene-1,2-dione], the IC50 is over 1000 nM.
Under `CCN(CC)CCn1cnc2cc(Nc3c(N[C@H](C)c4cccc(OC)c4)c(=O)c3=O)ccc21` [Compound A168, 3-[1-(2-diethylaminoethyl)-1H-benzimidazol-5-ylamino]-4-[(R)-1-(3-methoxyphenyl)ethyl-amino]cyclobut-3-ene-1,2-dione] stands over 1000 nM.
Under `O=c1c(NCc2ccccc2O)c(Nc2ccc3[nH]cnc3c2)c1=O` [Compound A158, 3-(1H-benzimidazol-5-ylamino)-4-(2-hydroxy-benzylamino)cyclobut-3-ene-1,2-dione] stands over 1000 nM.
Take `O=C(O)c1cccc(CNc2c(Nc3ccc4[nH]cnc4c3)c(=O)c2=O)c1` [Compound A130, 3-(1H-benzimidazol-5-ylamino)-4-(3-carboxy-benzylamino)cyclobut-3-ene-1,2-dione]: the half-maximal inhibitory concentration (IC50) is over 1000 nM.

Usually IC50 stands for the concentration that inhibits the measured activity by half.
